According to patent US20150173847A1, “IMAGING MARKER AND UTILIZATION THEREOF” (priority 2012, published 2015):
Where “and” joins values, the source holds several entries; their conditions need not be identical. Equal values may be shown once. Read-outs that look alike come from different tables or passages of the source.

What was measured:
[1] = Density of the aqueous solutions calculated from the weight of 2 mL in a tube; type: physicochemical
[2] = T1 and T2 relaxivity measurement by spin echo MRI at varying concentrations; type: physicochemical
[3] = as in the Examples
[4] = at 20 to 25° C., cited from earlier work
[5] = aqueous solution that exhibited maximum MRI contrast
[6] = aqueous solution, spin echo, 22° C.

density of solution ([1]; no matter what concentration the solution may have)	SMILES	Density [1]	density of solution [1]	r1 (T1 relaxivity) [2]	Density [1, 5]	r1 (T1 relaxivity) [2, 6]	r1 (T1 relaxivity) ([2]; aqueous solution, spin echo, 22° C., listed as SPT)	water solubility [3]	maximum density of aqueous solution ([4]; listed as sodium polytungstate (SPT))	maximum density of aqueous solution [4]
	O=S(=O)([O-])[O-].[Cu+2] [Cu (CuSO4), Copper sulfate]	1.0 g/mL	about 1 g/mL	0.63 and 0.63 mM−1 · sec^−1						
	O.[Na+].[Na+].[Na+].[Na+].[Na+].[Na+].[O]=[W](=[O])([O-])[O-].[O]=[W](=[O])([O-])[O-].[O]=[W](=[O])([O-])[O-].[O]=[W](=[O])=[O].[O]=[W](=[O])=[O].[O]=[W](=[O])=[O].[O]=[W](=[O])=[O].[O]=[W](=[O])=[O].[O]=[W](=[O])=[O].[O]=[W](=[O])=[O].[O]=[W](=[O])=[O].[O]=[W](=[O])=[O] [W (SPT), Sodium polytungstate]				3.0 g/mL	0.00036 mM⁻¹ s⁻¹	0.00036 mM⁻¹ s⁻¹	> 1 g/mL	at most 3.08 g/mL	3.08 g/mL
about 1 g/mL	CNC[C@H](O)[C@@H](O)[C@H](O)[C@H](O)CO.CNC[C@H](O)[C@@H](O)[C@H](O)[C@H](O)CO.O=C([O-])CN(CCN(CC(=O)[O-])CC(=O)O)CCN(CC(=O)[O-])CC(=O)O.[Gd+3] [Gd (Gd-DTPA), meglumine gadopentetate]				1.0 g/mL	4.2 mM⁻¹ s⁻¹				
